System: IL-4 induced STAT6 phosphorylation in THP-1 human monocytic cells
Conditions: THP-1 cells

| SMILES | THP-1 IL4 pIC50 |
| --- | --- |
| COC(=O)CN1[C@@H]2CC[C@H]1C[C@H](Nc1nc(Nc3cc(C)[nH]n3)cc3ncccc13)C2 [Example 1-1] | C (C represents a pEC50 value <6.7 (EC50>200 nM)) |
| COC(=O)CCCN1[C@@H]2CC[C@H]1C[C@H](Nc1nc(Nc3cc(C)[nH]n3)cc3ncccc13)C2 [Example 1-3] | C (C represents a pEC50 value <6.7 (EC50>200 nM)) |
| Cc1cc(Nc2cc3ncccc3c(N[C@@H]3C[C@H]4CC[C@@H](C3)N4CC(N)=O)n2)n[nH]1 [Example 1-6] | C (C represents a pEC50 value <6.7 (EC50>200 nM)) |
| CNC(=O)CN1[C@@H]2CC[C@H]1C[C@H](Nc1nc(Nc3cc(C)[nH]n3)cc3ncccc13)C2 [Example 1-7] | C (C represents a pEC50 value <6.7 (EC50>200 nM)) |
| Cc1cc(Nc2cc3ncccc3c(N[C@@H]3C[C@H]4CC[C@@H](C3)N4CC(=O)N(C)C)n2)n[nH]1 [Example 1-8] | C (C represents a pEC50 value <6.7 (EC50>200 nM)) |
| Cc1cc(Nc2cc3ncccc3c(N[C@@H]3C[C@H]4CC[C@@H](C3)N4CCCF)n2)n[nH]1 [Example 1-9] | C (C represents a pEC50 value <6.7 (EC50>200 nM)) |
| Cc1cc(Nc2cc3ncccc3c(N[C@@H]3C[C@H]4CC[C@@H](C3)N4CCC(F)(F)F)n2)n[nH]1 [Example 1-10] | C (C represents a pEC50 value <6.7 (EC50>200 nM)) |
| Cc1cc(Nc2cc3ncccc3c(N[C@@H]3C[C@H]4CC[C@@H](C3)N4CC(=O)N[C@@H]3CCOC3=O)n2)n[nH]1 [Example 1-11] | C (C represents a pEC50 value <6.7 (EC50>200 nM)) |
| Cc1cc(Nc2cc3ncccc3c(N[C@@H]3C[C@H]4CC[C@@H](C3)N4CC(=O)N[C@H]3CCOC3=O)n2)n[nH]1 [Example 1-12] | C (C represents a pEC50 value <6.7 (EC50>200 nM)) |
| Cc1cc(Nc2cc3ncccc3c(N[C@@H]3C[C@H]4CC[C@@H](C3)N4CC(C)C)n2)n[nH]1 [Example 1-13] | A (A represents a pEC50 value ≥7.5 (EC50≤32 nM)) |
| COCCCN1[C@@H]2CC[C@H]1C[C@H](Nc1nc(Nc3cc(C)[nH]n3)cc3ncccc13)C2 [Example 1-15] | C (C represents a pEC50 value <6.7 (EC50>200 nM)) |
| Cc1cc(Nc2cc3ncccc3c(N[C@@H]3C[C@H]4CC[C@@H](C3)N4C(C)CC#N)n2)n[nH]1 (stereo partly shown) [Example 1-21] | A (A represents a pEC50 value ≥7.5 (EC50≤32 nM)) |
| Cc1cc(Nc2cc3ncccc3c(N[C@@H]3C[C@H]4CC[C@@H](C3)N4C[C@H]3CCC(=O)O3)n2)n[nH]1 [Example 1-29] | C (C represents a pEC50 value <6.7 (EC50>200 nM)) |
| COC(=O)CN1[C@@H]2CCC[C@H]1C[C@H](Nc1nc(Nc3cc(C)[nH]n3)cc3ncccc13)C2 [Example 1-32] | C (C represents a pEC50 value <6.7 (EC50>200 nM)) |
| COC(=O)CCN1[C@@H]2CCC[C@H]1C[C@H](Nc1nc(Nc3cc(C)[nH]n3)cc3ncccc13)C2 [Example 1-33] | C (C represents a pEC50 value <6.7 (EC50>200 nM)) |
| COC(=O)CCCN1[C@@H]2CCC[C@H]1C[C@H](Nc1nc(Nc3cc(C)[nH]n3)cc3ncccc13)C2 [Example 1-34] | C (C represents a pEC50 value <6.7 (EC50>200 nM)) |
| Cc1cc(Nc2cc3ncccc3c(N[C@@H]3C[C@H]4CCC[C@@H](C3)N4CC(=O)OC(C)C)n2)n[nH]1 [Example 1-35] | A (A represents a pEC50 value ≥7.5 (EC50≤32 nM)) |
| Cc1cc(Nc2cc3ncccc3c(N[C@@H]3C[C@H]4CCC[C@@H](C3)N4CC(=O)N[C@@H]3CCOC3=O)n2)n[nH]1 [Example 1-41] | C (C represents a pEC50 value <6.7 (EC50>200 nM)) |
| Cc1cc(Nc2cc3ncccc3c(N[C@@H]3C[C@H]4CCC[C@@H](C3)N4CC(=O)N[C@H]3CCOC3=O)n2)n[nH]1 [Example 1-42] | C (C represents a pEC50 value <6.7 (EC50>200 nM)) |

| SMILES | THP-1 IL4 pIC50 |
| --- | --- |
| Cc1cc(Nc2cc3ncccc3c(N[C@@H]3C[C@H]4CCC[C@@H](C3)N4Cc3cccc(O)c3)n2)n[nH]1 [Example 1-49] | A (A represents a pEC50 value ≥7.5 (EC50≤32 nM)) |
| CCOCC(=O)N1[C@@H]2CC[C@H]1C[C@H](Nc1nc(Nc3cc(C)[nH]n3)cc3ncccc13)C2 [Example 2-4] | C (C represents a pEC50 value <6.7 (EC50>200 nM)) |
| Cc1cc(Nc2cc3ncccc3c(N[C@@H]3C[C@H]4CC[C@@H](C3)N4C(=O)CN(C)C)n2)n[nH]1 [Example 2-5] | C (C represents a pEC50 value <6.7 (EC50>200 nM)) |
| CCC(=O)N1[C@@H]2CCC[C@H]1C[C@H](Nc1nc(Nc3cc(C)[nH]n3)cc3ncccc13)C2 [Example 2-15] | A (A represents a pEC50 value ≥7.5 (EC50≤32 nM)) |
| CCC(C)C(=O)N1C2CCCC1CC(Nc1nc(Nc3cc(C)[nH]n3)cc3ncccc13)C2 (stereo not shown) [Example 2-18] | A (A represents a pEC50 value ≥7.5 (EC50≤32 nM)) |
| Cc1cc(Nc2cc3ncccc3c(N[C@@H]3C[C@H]4CC[C@@H](C3)N4C(=O)OCC(C)C)n2)n[nH]1 [Example 3-3] | A (A represents a pEC50 value ≥7.5 (EC50≤32 nM)) |
| C=CCOC(=O)N1[C@@H]2CC[C@H]1C[C@H](Nc1nc(Nc3cc(C)[nH]n3)cc3ncccc13)C2 [Example 3-4] | A (A represents a pEC50 value ≥7.5 (EC50≤32 nM)) |
| CCOC(=O)N1[C@@H]2CCC[C@H]1C[C@H](Nc1nc(Nc3cc(C)[nH]n3)cc3ncccc13)C2 [Example 3-6] | A (A represents a pEC50 value ≥7.5 (EC50≤32 nM)) |
| C=CCOC(=O)N1[C@@H]2CCC[C@H]1C[C@H](Nc1nc(Nc3cc(C)[nH]n3)cc3ncccc13)C2 [Example 3-8] | A (A represents a pEC50 value ≥7.5 (EC50≤32 nM)) |
| COCCOC(=O)N1[C@@H]2CCC[C@H]1C[C@H](Nc1nc(Nc3cc(C)[nH]n3)cc3ncccc13)C2 [Example 3-9] | A (A represents a pEC50 value ≥7.5 (EC50≤32 nM)) |
| Cc1cc(Nc2cc3ncccc3c(N[C@@H]3C[C@H]4CCC[C@@H](C3)N4S(C)(=O)=O)n2)n[nH]1 [Example 4-16] | A (A represents a pEC50 value ≥7.5 (EC50≤32 nM)) |
| Cc1cc(Nc2cc3ncccc3c(N[C@@H]3C[C@H]4CCC[C@@H](C3)N4S(=O)(=O)CC(C)C)n2)n[nH]1 [Example 4-17] | A (A represents a pEC50 value ≥7.5 (EC50≤32 nM)) |
| Cc1cc(Nc2cc3ncccc3c(N[C@@H]3C[C@H]4CCC[C@@H](C3)N4S(=O)(=O)C3CNC3)n2)n[nH]1 [Example 4-21] | C (C represents a pEC50 value <6.7 (EC50>200 nM)) |
| C=CCS(=O)(=O)N1[C@@H]2CCC[C@H]1C[C@H](Nc1nc(Nc3cc(C)[nH]n3)cc3ncccc13)C2 [Example 4-22] | A (A represents a pEC50 value ≥7.5 (EC50≤32 nM)) |
| Cc1ccc(S(=O)(=O)N2[C@@H]3CCC[C@H]2C[C@H](Nc2nc(Nc4cc(C)[nH]n4)cc4ncccc24)C3)cn1 [Example 4-25] | A (A represents a pEC50 value ≥7.5 (EC50≤32 nM)) |
| CCS(=O)(=O)N1[C@@H]2CCC[C@H]1C[C@H](Nc1nc(Nc3cc(C)[nH]n3)cc3nc(CN4CCOCC4)ccc13)C2 [Example 5-23] | A (A represents a pEC50 value ≥7.5 (EC50≤32 nM)) |
| Cc1cc(Nc2cc3nc(CN4CCOCC4)ccc3c(N[C@@H]3C[C@H]4CCC[C@@H](C3)N4CCC#N)n2)n[nH]1 [Example 5-26] | A (A represents a pEC50 value ≥7.5 (EC50≤32 nM)) |
| Cc1cc(Nc2cc3nc(CN4CCOCC4)ccc3c(N[C@H]3C[C@H]4CCC[C@@H](C3)N4CC(F)(F)F)n2)n[nH]1 [Example 5-29] | B (B represents a pEC50 value between 6.7 and 7.5 (EC50 between 200 nM and 32 nM)) |
